Assay results taken from the supplement of paper PMC13380429.
Where a name gives a salt, the structure may show the parent alone.

Columns and labels:
Conditions in all cases: 72 h
U2OS [1] = assay: cell viability relative to DMSO; higher = less toxic
Caco-2 [2] = assay: as above
Calu-3 [3] = assay: as above
HepG2 [4] = assay: as above
U2OS [5] = assay: relative viability EC50 (midpoint between 100% and the lowest measured viability); higher = less toxic
Caco-2 [6] = assay: as above
Calu-3 [7] = assay: as above
HepG2 [8] = assay: as above
U2OS [9] = assay: drug sensitivity score (DSS) for viability; higher = more toxic; extreme values may be limits of the assay
Caco-2 [10] = assay: as above
Calu-3 [11] = assay: as above
HepG2 [12] = assay: as above
Vero E6 [13] = assay: cell viability relative to DMSO; higher = less toxic
Vero E6 [14] = assay: drug sensitivity score (DSS) for viability; higher = more toxic; extreme values may be limits of the assay

Row | Compound | cell viability (U2OS [1]; 1 nM) | cell viability (U2OS [1]; 10 nM) | cell viability (U2OS [1]; 100 nM) | cell viability (U2OS [1]; 1000 nM) | cell viability (U2OS [1]; 10000 nM) | cell viability (Caco-2 [2]; 1 nM) | cell viability (Caco-2 [2]; 10 nM) | cell viability (Caco-2 [2]; 100 nM) | cell viability (Caco-2 [2]; 1000 nM) | cell viability (Caco-2 [2]; 10000 nM) | cell viability (Calu-3 [3]; 1 nM) | cell viability (Calu-3 [3]; 10 nM) | cell viability (Calu-3 [3]; 100 nM) | cell viability (Calu-3 [3]; 1000 nM) | cell viability (Calu-3 [3]; 10000 nM) | cell viability (HepG2 [4]; 1 nM) | cell viability (HepG2 [4]; 10 nM) | cell viability (HepG2 [4]; 100 nM) | cell viability (HepG2 [4]; 1000 nM) | cell viability (HepG2 [4]; 10000 nM) | relative viability EC50 (U2OS [5]) | relative viability EC50 (Caco-2 [6]) | relative viability EC50 (Calu-3 [7]) | relative viability EC50 (HepG2 [8]) | drug sensitivity score (U2OS [9]) | drug sensitivity score (Caco-2 [10]) | drug sensitivity score (Calu-3 [11]) | drug sensitivity score (HepG2 [12]) | cell viability (Vero E6 [13]; 1 nM) | cell viability (Vero E6 [13]; 10 nM) | cell viability (Vero E6 [13]; 100 nM) | cell viability (Vero E6 [13]; 1000 nM) | cell viability (Vero E6 [13]; 10000 nM) | drug sensitivity score (Vero E6 [14])
1 | Cc1c(N)cccc1Cn1ccc(OCCc2cccs2)cc1=O | 99.5% | 101% | 95.4% | 97.1% | 95% | 91.2% | 91.6% | 91.1% | 98.5% | 84.3% | 95.9% | 100% | 106% | 102% | 93.4% | 93.3% | 104% | 94.1% | 99.8% | 93.2% | > 10 µM | > 10 µM | > 10 µM | > 10 µM | 0 | 0 | 0 | 0 |  |  |  |  |  | 
2 | Cc1cccc2c1CC[C@H](CN1CCC(c3c(Cl)cccc3Cl)CC1)C[C@@H]2O | 102% | 106% | 95.2% | 94.2% | 62.1% | 93.9% | 95.8% | 91.3% | 78.3% | 58.1% | 93.8% | 106% | 89.1% | 83.8% | 51.2% | 104% | 102% | 93.3% | 86.5% | 38.5% |  |  |  | 1.65 µM | 2.8 | 4.7 | 4.2 | 5.5 | 99.2% | 104% | 95% | 90.2% | 70% | 2.2
3 | CCCCCCN(CCCCCC)C(=O)Cc1c(-c2ccc(Cl)cc2)[nH]c2ccc(Cl)cc12 [FGIN-1-43] | 98.4% | 103% | 103% | 104% | 95.2% | 101% | 102% | 101% | 93.5% | 86.8% | 91.5% | 106% | 99.4% | 101% | 103% | 104% | 94.9% | 106% | 98.2% | 97% | > 10 µM | > 10 µM | > 10 µM | > 10 µM | 0 | 0.5 | 0 | 0 |  |  |  |  |  | 
4 | CS(=O)(=O)c1ccc(-c2nnc(/C=C/c3nnc(-c4ccc(C#N)cc4)o3)n2-c2ccccc2Cl)nc1 [G007-LK] | 94.7% | 98% | 91.8% | 85.8% | 83.5% | 104% | 108% | 93.1% | 83.1% | 94.1% | 105% | 93.4% | 67.1% | 66% | 77.2% | 107% | 106% | 101% | 92.8% | 89.5% | > 10 µM | > 10 µM |  | > 10 µM | 1.4 | 2.6 | 11.1 | 0.1 | 99.2% | 105% | 95.1% | 61.7% | 57.8% | 7.5
5 | COc1ccc(C2(CNC(=O)c3ccc(NC(=O)c4ccco4)cc3)CCOCC2)cc1 [JW-55] | 103% | 95.9% | 97.8% | 95.2% | 90.8% | 101% | 91.6% | 97.8% | 92.1% | 93.6% |  |  |  |  |  | 100% | 117% | 94.9% | 102% | 89.3% | > 10 µM | > 10 µM |  | > 10 µM | 0 | 0 |  | 0 | 103% | 108% | 97.3% | 102% | 62.6% | 1.6
6 | CN1CCC(NC(=O)c2cc(-c3c(O)cc(O)cc3Oc3ccc([N+](=O)[O-])cc3)on2)CC1 [NMS-E973] | 94.2% | 103% | 99.5% | 28.2% | 3.7% | 99.1% | 97.8% | 101% | 61.3% | 33.7% | 93.7% | 101% | 90.4% | 68.4% | 44% | 108% | 101% | 55% | 0.9% | 0.9% | 0.65 µM | 0.874 µM | 0.669 µM | 0.108 µM | 13.6 | 8.3 | 7 | 23.6 | 109% | 100% | 106% | 108% | 62.2% | 1.4
7 | CN(C)CC/C=C1/c2ccccc2COc2ccc(CC(=O)O)cc21 [Olopatadine hydrochloride (Opatanol)] |  |  |  |  |  |  |  |  |  |  |  |  |  |  |  |  |  |  |  |  |  |  |  |  | 0 |  | 0 | 0 |  |  |  |  |  | 0
8 | c1ccc(C(NCc2cccnc2)(c2ccccc2)c2ccccc2)cc1 [UCL-2077] | 96.9% | 98.5% | 101% | 106% | 103% | 101% | 103% | 96.7% | 103% | 91.4% | 96.7% | 86.1% | 89.6% | 94.2% | 94.8% | 97.4% | 104% | 97.3% | 92.6% | 94.6% | > 10 µM | > 10 µM | > 10 µM | > 10 µM | 0 | 0 | 0 | 0 |  |  |  |  |  | 
9 | C[C@H]1O[C@H](O[C@H]2[C@H](O)[C@@H](O)[C@@H](O[C@H]3[C@H](O)[C@@H](O)C(O)O[C@@H]3CO)O[C@@H]2CO)[C@H](O)[C@@H](O)[C@@H]1N[C@H]1C=C(CO)[C@@H](O)[C@H](O)[C@H]1O (stereo partly drawn) [acarbose] |  |  |  |  |  |  |  |  |  |  |  |  |  |  |  |  |  |  |  |  |  |  |  |  |  |  | 0 | 0 |  |  |  |  |  | 0
10 | CNC1CCCN(c2c(F)cc3c(=O)c(C(=O)O)cn(C4CC4)c3c2OC)C1 (stereo not drawn) [balofloxacin] | 113% | 102% | 97.5% | 103% | 93.2% | 105% | 98.3% | 98.4% | 93.3% | 99.9% | 104% | 94.8% | 101% | 97.7% | 102% | 114% | 97.5% | 93.1% | 104% | 104% | > 10 µM | > 10 µM | > 10 µM | > 10 µM | 0 | 0 | 0 | 0 |  |  |  |  |  | 
11 | CCN(CCCOc1ccc2c(Nc3cc(CC(=O)Nc4cccc(F)c4)[nH]n3)ncnc2c1)CCOP(=O)(O)O [barasertib] | 101% | 101% | 98% | 100% | 89.7% | 99.4% | 99.7% | 79.1% | 102% | 82.9% | 112% | 94.2% | 102% | 92.2% | 91.3% | 93.4% | 94.7% | 70.7% | 82.9% | 75% | > 10 µM | > 10 µM | > 10 µM |  | 0 | 0.4 | 0 | 6 | 94.3% | 96.9% | 101% | 93.7% | 74.2% | 1.9
12 | Cc1c(-c2ccc(-c3ccccc3F)cc2)nc2ccc(F)cc2c1C(=O)O [brequinar] | 98.2% | 93.1% | 103% | 103% | 103% | 123% | 93.8% | 93.4% | 105% | 111% | 96.4% | 93.9% | 101% | 106% | 99.6% | 105% | 104% | 95.6% | 59.2% | 41.8% | > 10 µM | > 10 µM | > 10 µM | 0.563 µM | 0 | 0 | 0 | 8.3 | 92.9% | 93.3% | 93.5% | 66.3% | 64.2% | 6.6
13 | O=c1[nH]c(=O)c2ccccc2o1 [carsalam] | 98.9% | 102% | 97.3% | 102% | 103% | 99.5% | 95.4% | 92.5% | 104% | 98.8% | 89.6% | 93.5% | 104% | 106% | 108% | 96% | 100% | 103% | 98.1% | 101% | > 10 µM | > 10 µM | > 10 µM | > 10 µM | 0 | 0 | 0 | 0 |  |  |  |  |  | 
14 | CN[C@@H]1[C@H](O[C@H]2[C@H](O[C@H]3[C@H](O)[C@@H](O)[C@H](NC(=N)N)[C@@H](O)[C@@H]3NC(=N)N)O[C@@H](C)[C@]2(O)CO)O[C@@H](CO)[C@H](O)[C@H]1O [dihydrostreptomycin] | 102% | 105% | 97.3% | 107% | 97.3% | 99.2% | 94.3% | 97.6% | 93.8% | 104% | 97.8% | 97.1% | 106% | 96.9% | 94.8% | 109% | 100% | 101% | 105% | 98.5% | > 10 µM | > 10 µM | > 10 µM | > 10 µM | 0 | 0 | 0 | 0 |  |  |  |  |  | 
15 | O=C(Nc1nc2cccc(-c3ccc(CN4CCS(=O)(=O)CC4)cc3)n2n1)C1CC1 [filgotinib] |  |  |  |  |  | 111% | 104% | 93.2% | 95.7% | 96.5% | 95.7% | 105% | 98.2% | 87.5% | 97.4% | 100% | 99.1% | 96.4% | 102% | 53.4% |  | > 10 µM | > 10 µM |  |  | 0 | 0 | 2.3 |  |  |  |  |  | 
16 | CC(=O)O[C@H]1C[C@@]2(C)[C@@H](C[C@@H](O)[C@H]3[C@@]4(C)CC[C@@H](O)[C@@H](C)[C@@H]4CC[C@@]32C)/C1=C(\CCC=C(C)C)C(=O)O [fusidic-acid] | 98.8% | 104% | 99.6% | 106% | 100% | 103% | 116% | 89.6% | 104% | 99.5% | 96% | 109% | 93.7% | 93.5% | 86.1% |  |  |  |  |  | > 10 µM | > 10 µM | > 10 µM |  | 0 | 0 | 0.3 |  |  |  |  |  |  | 
